The source made the active and inactive calls. No cut-off for these calls is given here.
Columns and labels:
[1] = Induction of H2S release in phosphate buffer at 100 uM at pH 7.4 UV-irrdiated for 300 secs by fluorescence assay relative to control; assay type: physicochemical; details: pH 7.4, 5 min
HEK293 [2] = experiment: Cytotoxicity against HEK293 cells at 1 to 30 uM using acetoxymethylated compound after 2 days by MTT assay; assay type: cell-based; details: human, hek293, 48 h
[3] = Induction of H2S release in phosphate buffer at 100 uM at pH 7.4 followed by UV-irrdiation by methylene-blue assay; assay type: physicochemical; details: pH 7.4, 100 µM, TDE = time-dependent effect
[4] = Stability of the compound in phosphate buffer at 100 uM at pH 7.4 under dark condition after 1 month by HPLC analysis; assay type: physicochemical; details: pH 7.4, 730.5 h
HEK293 [5] = experiment: Induction of H2S release in HEK293 cells at 100 uM using acetoxymethylated compound incubated for 30 mins followed by UV photoirradiation for 5 mins by fluorescence microscopic analysis; assay type: functional, cell-based; details: Homo sapiens
HEK293 [6] = experiment: Induction of H2S release in HEK293 cells at 100 uM incubated for 30 mins followed by UV photo-irradiation for 5 mins by fluorescence microscopic analysis; assay type: functional, cell-based; details: Homo sapiens
[7] = Induction of H2S release in phosphate buffer at 100 uM at pH 7.4 UV-irrdiated for 400 secs by methylene-blue assay; assay type: physicochemical; details: pH 7.4, 0.111111 h

Row | SMILES | Activity [1] | Activity (HEK293 [2]) | Activity [3] | Stability [4] | Activity (HEK293 [5]) | Activity (HEK293 [6]) | Activity [7] [µM]
1 | CC(CSCC(C)(C(=O)O)c1ccc2oc3ccccc3c(=O)c2c1)(C(=O)O)c1ccc2oc3ccccc3c(=O)c2c1 (configuration not stated) | Active | Non-toxic | tde | Stable | Active |  | 
2 | CC(CSCC(C)(C(=O)O)c1cccc(C(=O)c2ccccc2)c1)(C(=O)O)c1cccc(C(=O)c2ccccc2)c1 (configuration not stated) |  |  |  |  |  | inactive | 15

Reference: ChEMBL document CHEMBL3351545, “Development of photo-controllable hydrogen sulfide donor applicable in live cells” (Bioorg Med Chem Lett, 2015)
